Reference: PubChem BioAssay (NCI)
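Exposure lasted 48 hours, with cells grown in 96-well plates and compounds tested at five concentrations. TGI denotes the concentration required for complete inhibition of growth.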

Test system: P388/ADR leukemia
Test: NCI tumour cell line growth inhibition, 48 h

Structure (SMILES): O=C[C@@H](CO)O[C@H](C=O)n1cnc2c(=O)[nH]cnc21
- TGI: 257 µM
